For one compound, IC50 results are on record in ChEMBL document CHEMBL1201862, “PubChem BioAssay data set” (2004).

This test addresses T1, Sentrin-specific protease 6 (Homo sapiens, UniProt Q9GZR1).
T1 sequence (Q9GZR1 whole entry): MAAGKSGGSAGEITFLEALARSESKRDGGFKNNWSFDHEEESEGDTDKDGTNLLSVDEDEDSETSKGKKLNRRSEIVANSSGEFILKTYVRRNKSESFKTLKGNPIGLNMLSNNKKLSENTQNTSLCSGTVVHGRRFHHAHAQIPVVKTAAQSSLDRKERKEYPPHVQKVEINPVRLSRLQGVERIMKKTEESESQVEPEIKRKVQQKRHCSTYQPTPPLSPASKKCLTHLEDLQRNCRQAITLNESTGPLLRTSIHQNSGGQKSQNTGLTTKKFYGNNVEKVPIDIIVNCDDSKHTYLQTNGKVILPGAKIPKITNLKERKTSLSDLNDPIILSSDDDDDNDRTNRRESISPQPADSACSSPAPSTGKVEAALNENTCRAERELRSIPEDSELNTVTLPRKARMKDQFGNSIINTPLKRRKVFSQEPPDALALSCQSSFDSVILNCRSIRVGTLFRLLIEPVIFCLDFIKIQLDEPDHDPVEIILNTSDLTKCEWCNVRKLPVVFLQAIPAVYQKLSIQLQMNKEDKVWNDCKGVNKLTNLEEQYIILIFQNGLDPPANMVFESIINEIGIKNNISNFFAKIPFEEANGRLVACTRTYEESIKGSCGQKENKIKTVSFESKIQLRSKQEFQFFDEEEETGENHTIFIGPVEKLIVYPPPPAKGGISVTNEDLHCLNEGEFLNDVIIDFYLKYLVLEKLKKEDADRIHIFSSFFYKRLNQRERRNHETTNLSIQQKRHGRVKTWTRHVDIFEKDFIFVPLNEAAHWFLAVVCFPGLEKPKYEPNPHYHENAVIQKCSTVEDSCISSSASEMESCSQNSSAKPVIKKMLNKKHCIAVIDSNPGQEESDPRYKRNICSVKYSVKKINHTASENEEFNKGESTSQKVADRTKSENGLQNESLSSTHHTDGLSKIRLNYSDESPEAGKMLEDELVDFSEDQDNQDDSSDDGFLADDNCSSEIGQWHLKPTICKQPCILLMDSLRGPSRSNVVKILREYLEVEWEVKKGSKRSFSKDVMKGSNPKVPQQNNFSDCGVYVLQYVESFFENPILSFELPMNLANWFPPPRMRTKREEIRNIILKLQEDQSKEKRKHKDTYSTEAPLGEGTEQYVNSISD
The format is functional.

Active and inactive are the calls of the source. Rule as the data show it: actives have a measured IC50 and inactives only a lower limit.
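Also: Luminescence-based dose-response confirmatory assay of SENP6 inhibition, following up an ultra-high-throughput screen.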

Broadly, the IC50 is the concentration that gives 50% inhibition. `CC(C)=CCC1=C(OCC(=O)O)C(=O)c2ccccc2C1=O`: the IC50 was 2530 nM (active).
